For 4 compounds, remaining activity results are on record in article PMC7827406, “Structure–Activity Relationship (SAR) Study of Spautin-1 to Entail the Discovery of Novel NEK4 Inhibitors” (International Journal of Molecular Sciences, 2021).

Where two headings read alike, the source gives them in different places.

Holding throughout (test): biochemical
Common to all, as to set-up: Eurofins KinaseProfiler full panel at Km ATP, residual kinase activity (%) relative to DMSO

For experiment [1], the target named is WNK4(h) (Homo sapiens, UniProt Q96J92). The gist of the method:
(§1)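 Compounds screened at 10 µM in radiometric kinase activity assays at Km ATP, reported as remaining kinase activity (%). A KINOMEscan competition-binding screen at 10 µM measured DNA-tagged kinase retained on immobilized active-site ligand by qPCR.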

Experiment [2] deals with T1, CaMKI(h) (Homo sapiens, UniProt Q14012).
T1 construct: gene CAMK1
T1 sequence (Q14012 whole entry): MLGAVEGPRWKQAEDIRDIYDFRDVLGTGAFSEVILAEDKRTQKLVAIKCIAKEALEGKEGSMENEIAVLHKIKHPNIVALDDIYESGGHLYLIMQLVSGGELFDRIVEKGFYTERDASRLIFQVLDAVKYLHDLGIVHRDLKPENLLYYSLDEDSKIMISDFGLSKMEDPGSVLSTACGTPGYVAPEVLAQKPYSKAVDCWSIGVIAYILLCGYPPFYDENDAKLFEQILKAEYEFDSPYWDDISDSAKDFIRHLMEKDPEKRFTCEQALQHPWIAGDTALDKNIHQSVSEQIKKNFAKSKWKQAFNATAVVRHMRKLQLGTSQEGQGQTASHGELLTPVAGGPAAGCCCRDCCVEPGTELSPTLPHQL
The gist of the method:
as §1

Experiment [3] concerns the target mTOR/FKBP12(h) (Homo sapiens, UniProt P42345). The gist of the method:
as §1

The target in experiment [4] is T2, Pim-2(h) (Homo sapiens, UniProt Q9P1W9).
T2 construct: gene PIM2
T2 sequence (Q9P1W9 whole entry): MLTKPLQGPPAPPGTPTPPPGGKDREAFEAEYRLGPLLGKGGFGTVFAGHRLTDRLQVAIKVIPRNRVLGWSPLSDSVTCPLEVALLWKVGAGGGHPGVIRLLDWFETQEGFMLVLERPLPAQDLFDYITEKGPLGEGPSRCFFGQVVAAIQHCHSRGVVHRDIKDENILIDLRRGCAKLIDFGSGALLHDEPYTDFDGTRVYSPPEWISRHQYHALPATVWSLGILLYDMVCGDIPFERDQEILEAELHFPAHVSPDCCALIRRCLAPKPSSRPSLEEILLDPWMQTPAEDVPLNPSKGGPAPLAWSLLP
The gist of the method: as §1

The target in experiment [5] is WNK1(h) (Homo sapiens, UniProt Q9H4A3). The gist of the method: as §1
The target in experiment [6] is T3, AMPKα1(h) (Homo sapiens, UniProt Q13131).
T3 construct: gene PRKAA1
The gist of the method: as §1

In experiment [7] the target is Fyn(h) (Homo sapiens, UniProt P06241). The gist of the method: as §1
The target of experiment [8] is EGFR(L861Q)(h) (Homo sapiens, UniProt P00533, L861Q). The gist of the method:
as §1

Experiment [9] addresses T4, Rsk4(h) (Homo sapiens, UniProt Q9UK32).
T4 construct: gene RPS6KA6
The gist of the method: as §1

The target in experiment [10] is DAPK2(h) (Homo sapiens, UniProt Q9UIK4). The gist of the method:
as §1

The target of experiment [11] is T5, JNK1α1(h) (Homo sapiens, UniProt P45983).
T5 construct: gene MAPK8; isoform alpha1
The gist of the method: as §1

Experiment [12] concerns the target CDK13/cyclinK(h) (Homo sapiens, UniProt Q14004). The gist of the method:
as §1

Experiment [13] concerns the target T6, PI3 Kinase (p110a(E545K)/p85a)(m) (Mus musculus, UniProt P42337, E545K).
T6 construct: gene Pik3ca
The gist of the method:
as §1

Experiment [14] addresses SLK(h) (Homo sapiens, UniProt Q9H2G2). The gist of the method:
as §1

Experiment [15] concerns the target T7, PI3 Kinase (p110d/p85a)(h) (Homo sapiens, UniProt O00329).
T7 construct: gene PIK3CD
The gist of the method: as §1

Experiment [16] addresses T8, CaMKIIγ(h) (Homo sapiens, UniProt Q13555).
T8 construct: gene CAMK2G
The gist of the method: as §1

The mark [17] stands for this setting: read-out: Residual activity (%) Spautin-1 5aa.
[18] abbreviates: read-out: Residual activity (%) 5as.
[19] abbreviates: read-out: Residual activity (%) 5at.
Where [20] appears, read: read-out: Residual activity (%) 5ay.

T8 sequence (Q13555 whole entry): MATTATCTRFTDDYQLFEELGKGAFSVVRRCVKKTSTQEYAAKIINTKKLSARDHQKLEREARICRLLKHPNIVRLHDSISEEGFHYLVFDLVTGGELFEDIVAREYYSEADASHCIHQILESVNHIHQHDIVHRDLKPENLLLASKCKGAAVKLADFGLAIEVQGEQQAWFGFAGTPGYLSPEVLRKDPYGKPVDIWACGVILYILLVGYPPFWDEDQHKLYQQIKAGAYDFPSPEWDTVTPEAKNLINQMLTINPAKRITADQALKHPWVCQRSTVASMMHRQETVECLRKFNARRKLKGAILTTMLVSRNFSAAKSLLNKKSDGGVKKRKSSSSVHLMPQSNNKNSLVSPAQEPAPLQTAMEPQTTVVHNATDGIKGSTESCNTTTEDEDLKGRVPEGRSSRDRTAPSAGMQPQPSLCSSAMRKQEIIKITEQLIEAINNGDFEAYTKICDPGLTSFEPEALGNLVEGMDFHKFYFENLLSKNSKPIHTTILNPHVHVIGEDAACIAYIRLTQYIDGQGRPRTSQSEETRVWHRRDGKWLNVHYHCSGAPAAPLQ
T7 sequence (O00329 whole entry): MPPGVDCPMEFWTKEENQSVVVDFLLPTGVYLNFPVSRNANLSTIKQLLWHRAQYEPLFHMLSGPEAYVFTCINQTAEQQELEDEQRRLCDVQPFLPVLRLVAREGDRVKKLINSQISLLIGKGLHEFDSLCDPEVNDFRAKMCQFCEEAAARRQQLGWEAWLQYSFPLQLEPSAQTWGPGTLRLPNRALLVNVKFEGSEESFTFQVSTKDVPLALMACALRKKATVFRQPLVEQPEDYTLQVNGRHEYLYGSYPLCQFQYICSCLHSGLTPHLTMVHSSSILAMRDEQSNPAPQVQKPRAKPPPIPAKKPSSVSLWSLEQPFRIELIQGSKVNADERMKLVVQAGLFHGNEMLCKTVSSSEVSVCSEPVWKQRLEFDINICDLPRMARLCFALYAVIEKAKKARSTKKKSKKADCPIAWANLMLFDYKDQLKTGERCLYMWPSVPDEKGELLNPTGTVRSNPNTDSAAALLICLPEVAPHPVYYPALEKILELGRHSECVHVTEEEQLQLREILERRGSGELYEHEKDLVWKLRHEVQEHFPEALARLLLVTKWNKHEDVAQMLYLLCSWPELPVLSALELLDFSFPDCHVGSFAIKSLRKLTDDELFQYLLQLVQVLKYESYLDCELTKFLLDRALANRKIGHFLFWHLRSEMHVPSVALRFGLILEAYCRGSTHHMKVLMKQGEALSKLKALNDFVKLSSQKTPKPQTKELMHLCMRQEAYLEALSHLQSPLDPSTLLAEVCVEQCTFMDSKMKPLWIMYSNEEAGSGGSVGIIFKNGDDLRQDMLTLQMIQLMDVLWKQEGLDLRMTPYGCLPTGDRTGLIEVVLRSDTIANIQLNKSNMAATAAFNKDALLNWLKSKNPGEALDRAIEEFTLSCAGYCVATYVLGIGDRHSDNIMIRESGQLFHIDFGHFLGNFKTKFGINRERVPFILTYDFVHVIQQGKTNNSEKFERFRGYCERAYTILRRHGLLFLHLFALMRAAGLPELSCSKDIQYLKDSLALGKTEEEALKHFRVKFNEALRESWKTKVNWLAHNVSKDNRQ
T7 sequence (P27986 whole entry partner): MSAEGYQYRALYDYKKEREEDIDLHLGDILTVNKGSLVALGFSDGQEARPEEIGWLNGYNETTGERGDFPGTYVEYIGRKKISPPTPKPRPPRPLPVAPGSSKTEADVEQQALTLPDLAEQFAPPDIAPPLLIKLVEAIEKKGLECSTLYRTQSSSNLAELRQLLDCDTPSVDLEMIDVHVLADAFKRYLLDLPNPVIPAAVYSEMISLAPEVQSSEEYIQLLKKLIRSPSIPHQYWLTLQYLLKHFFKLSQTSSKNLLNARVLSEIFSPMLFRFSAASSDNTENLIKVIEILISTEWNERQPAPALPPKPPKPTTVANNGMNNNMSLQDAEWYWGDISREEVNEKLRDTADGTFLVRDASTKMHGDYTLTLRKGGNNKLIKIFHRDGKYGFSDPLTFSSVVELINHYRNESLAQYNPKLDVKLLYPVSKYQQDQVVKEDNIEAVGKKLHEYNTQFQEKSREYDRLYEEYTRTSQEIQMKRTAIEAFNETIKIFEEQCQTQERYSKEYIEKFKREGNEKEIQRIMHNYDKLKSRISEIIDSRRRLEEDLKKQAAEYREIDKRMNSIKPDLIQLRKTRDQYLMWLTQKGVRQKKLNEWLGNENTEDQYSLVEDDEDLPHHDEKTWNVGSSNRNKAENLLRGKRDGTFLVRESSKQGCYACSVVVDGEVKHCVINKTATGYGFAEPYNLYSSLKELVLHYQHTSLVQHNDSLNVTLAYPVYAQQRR
T6 sequence (P42337 whole entry E545K): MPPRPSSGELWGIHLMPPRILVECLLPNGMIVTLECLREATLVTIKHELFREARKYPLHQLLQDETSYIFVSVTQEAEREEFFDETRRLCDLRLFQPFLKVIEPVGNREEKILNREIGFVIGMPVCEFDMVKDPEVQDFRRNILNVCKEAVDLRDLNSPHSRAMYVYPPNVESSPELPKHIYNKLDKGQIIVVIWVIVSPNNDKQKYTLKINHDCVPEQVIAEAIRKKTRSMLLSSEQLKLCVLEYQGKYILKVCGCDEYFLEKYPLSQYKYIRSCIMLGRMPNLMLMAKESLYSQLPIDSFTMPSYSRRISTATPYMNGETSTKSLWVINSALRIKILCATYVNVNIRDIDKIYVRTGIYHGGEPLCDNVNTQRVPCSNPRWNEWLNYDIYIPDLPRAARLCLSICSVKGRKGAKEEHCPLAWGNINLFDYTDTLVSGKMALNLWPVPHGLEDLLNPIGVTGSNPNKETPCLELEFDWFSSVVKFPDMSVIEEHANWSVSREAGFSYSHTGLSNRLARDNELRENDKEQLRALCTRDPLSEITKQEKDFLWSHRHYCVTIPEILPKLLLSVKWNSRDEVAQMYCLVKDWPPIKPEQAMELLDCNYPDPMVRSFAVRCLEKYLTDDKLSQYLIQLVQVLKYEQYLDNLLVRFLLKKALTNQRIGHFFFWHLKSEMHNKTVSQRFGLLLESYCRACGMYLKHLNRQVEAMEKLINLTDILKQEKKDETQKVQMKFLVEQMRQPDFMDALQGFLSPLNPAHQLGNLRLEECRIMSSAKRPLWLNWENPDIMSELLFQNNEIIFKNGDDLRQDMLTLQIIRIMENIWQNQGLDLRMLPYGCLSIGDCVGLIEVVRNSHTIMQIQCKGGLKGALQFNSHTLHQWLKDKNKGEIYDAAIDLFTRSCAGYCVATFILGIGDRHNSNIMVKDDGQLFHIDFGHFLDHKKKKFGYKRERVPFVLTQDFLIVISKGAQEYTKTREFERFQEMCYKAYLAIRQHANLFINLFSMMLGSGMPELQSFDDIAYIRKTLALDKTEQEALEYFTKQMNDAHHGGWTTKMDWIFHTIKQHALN
T6 sequence (P26450 whole entry partner): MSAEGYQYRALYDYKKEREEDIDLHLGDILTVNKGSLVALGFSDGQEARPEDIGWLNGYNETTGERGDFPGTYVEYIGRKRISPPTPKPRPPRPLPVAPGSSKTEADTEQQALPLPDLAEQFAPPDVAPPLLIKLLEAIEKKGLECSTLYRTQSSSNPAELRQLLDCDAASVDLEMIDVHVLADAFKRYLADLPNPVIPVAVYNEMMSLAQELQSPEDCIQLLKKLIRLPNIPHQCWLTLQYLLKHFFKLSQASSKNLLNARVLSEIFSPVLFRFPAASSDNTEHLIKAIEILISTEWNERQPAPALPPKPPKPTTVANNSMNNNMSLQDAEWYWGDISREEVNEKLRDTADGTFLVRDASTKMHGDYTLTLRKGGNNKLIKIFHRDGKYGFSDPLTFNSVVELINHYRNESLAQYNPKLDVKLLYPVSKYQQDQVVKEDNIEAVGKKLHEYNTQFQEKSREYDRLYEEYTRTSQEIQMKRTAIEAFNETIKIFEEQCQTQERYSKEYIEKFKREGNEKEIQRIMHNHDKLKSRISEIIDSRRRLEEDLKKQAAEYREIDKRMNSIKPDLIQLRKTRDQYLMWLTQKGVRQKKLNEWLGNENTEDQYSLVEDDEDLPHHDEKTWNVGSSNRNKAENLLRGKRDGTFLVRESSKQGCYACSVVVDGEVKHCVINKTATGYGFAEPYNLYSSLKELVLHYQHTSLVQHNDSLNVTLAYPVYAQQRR

Consider `Fc1ccc(CNc2ncnc3ccc(F)cc23)cc1` [5aa, 6-Fluoro-N-(4-fluorobenzyl)-4-Quinazolinamine], for which the remaining activity at 10 µM in experiment [1] (setting [17]) is 105%; in [2] (setting [17]), 90%; in [3] (setting [17]) it was 100%; in experiment [4] (setting [17]), 80%; in experiment [5] (setting [17]), 78%; in experiment [6] (setting [17]) it was 110%. Besides, the remaining activity at 10 µM in experiment [7] (setting [17]) turned out to be 63%; in [8] (setting [17]) it was 36%; in [9] (setting [17]), 117%; in [10] (setting [17]), 94%; in experiment [11] (setting [17]) it was 98%; in experiment [12] (setting [17]), 75%. Further, the remaining activity at 10 µM stood at 94% in experiment [13] (setting [17]), 98% in experiment [14] (setting [17]), 93% in [15] (setting [17]) and 83% in experiment [16] (setting [17]).

Regarding `Fc1ccc(CCNc2ncnc3ccc(F)cc23)cc1` [5as, 6-Fluoro-N-[2-(4-Fluorophenyl)Ethyl]-4-Quinazolinamine], the remaining activity at 10 µM in [1] (setting [18]) turned out to be 94%; in [2] (setting [18]), 60%; in [3] (setting [18]) it was 89%; in [4] (setting [18]), 73%; in [5] (setting [18]), 81%; in experiment [6] (setting [18]), 93%. For the same compound, the remaining activity at 10 µM in experiment [7] (setting [18]) was 61%; in experiment [8] (setting [18]), 51%; in [9] (setting [18]) it was 81%; in [10] (setting [18]), 100%; in [11] (setting [18]), 83%; in experiment [12] (setting [18]) it was 35%. For the same compound, the remaining activity at 10 µM in experiment [13] (setting [18]) amounted to 91%; in experiment [14] (setting [18]), 77%; in experiment [15] (setting [18]), 84%; in [16] (setting [18]), 74%.

For `Fc1ccc2ncnc(NCCc3ccc(Cl)cc3)c2c1` [5at, N-[2-(4-Chlorophenyl)Ethyl]-6-Fluoro-4-Quinazolinamine], the remaining activity at 10 µM in [1] (setting [19]) turned out to be 92%; in experiment [2] (setting [19]), 104%; in [3] (setting [19]), 94%; in [4] (setting [19]) it was 70%; in experiment [5] (setting [19]), 92%; in experiment [6] (setting [19]), 85%. In addition, the remaining activity at 10 µM in experiment [7] (setting [19]) was found to be 75%; in experiment [8] (setting [19]), 73%; in experiment [9] (setting [19]) it was 92%; in experiment [10] (setting [19]), 101%; in experiment [11] (setting [19]), 98%; in experiment [12] (setting [19]), 114%. In addition, the remaining activity at 10 µM came to 91% in experiment [13] (setting [19]), 78% in [14] (setting [19]), 80% in experiment [15] (setting [19]) and 75% in experiment [16] (setting [19]).

For the compound `COc1ccc2ncnc(Nc3cccc(F)c3)c2c1` [5ay, N-(3-Fluorophenyl)-6-Methoxy-4-Quinazolinamine], the remaining activity at 10 µM in experiment [1] (setting [20]) is 100%; in experiment [2] (setting [20]), 93%; in experiment [3] (setting [20]), 88%; in experiment [4] (setting [20]), 76%; in experiment [5] (setting [20]) it was 75%; in [6] (setting [20]), 100%. Further, the remaining activity at 10 µM in experiment [7] (setting [20]) stood at 66%; in experiment [9] (setting [20]), 100%; in [10] (setting [20]), 91%; in experiment [11] (setting [20]) it was 94%; in experiment [12] (setting [20]), 105%; in experiment [13] (setting [20]) it was 91%. In addition, the remaining activity at 10 µM in [14] (setting [20]) was 70%; in experiment [15] (setting [20]) it was 96%; in experiment [16] (setting [20]) it was 41%.
